Structures can show the parent of a compound that is named as a salt. Where two headings read alike, the source gives them in different places.
Assays:
[1] = test system: NCI-H292 lung cancer cells; assay: FDA drug screening, complete media vs cholesterol-free media with simvastatin (TABLE 2); assay type: cell-based, human
[2] = test system: NCI-H292 lung cancer cells; assay: FDA drug screening, complete media vs cholesterol-free media without statin (TABLE 1); assay type: cell-based, human
[3] = NCI-H292 cells, drug in cholesterol-free media with simvastatin 0.04 μM
[4] = NCI-H292 cells, drug in complete media
[5] = complete media vs cholesterol-free media + simvastatin (0.04 μM), >0 enhanced anti-cancer activity, about 0 neutral, <0 antagonist
[6] = Complete minus Cholesterol-free, greater than 0 enhanced anti-cancer activity, about 0 neutral, below 0 antagonists
[7] = NCI-H292 cells in cholesterol-free media without statin
[8] = NCI-H292 cells in complete media
[9] = NCI-H292 cells, FDA library drug in cholesterol-free media with simvastatin 0.04 μM
[10] = NCI-H292 cells, FDA library drug in complete media
[11] = NCI-H292 cells, cholesterol-free media without statin
[12] = complete vs cholesterol-free media, greater than 0 enhanced anti-cancer activity, about 0 neutral, below 0 antagonists
[13] = NCI-H292 cells, FDA drug library screen, cholesterol-free media with simvastatin 0.04 μM
[14] = complete media minus cholesterol-free media + simvastatin, >0 enhanced anti-cancer activity, about 0 neutral, <0 antagonist
[15] = Complete minus Cholesterol-free, greater than 0 enhanced anti-cancer activity, about 0 neutral, below 0 antagonist
[16] = NCI-H292 cells, FDA drug library screen, cholesterol-free media without statin
[17] = NCI-H292 cells, FDA drug library screen, complete media
[18] = Complete minus Cholesterol-free, >0 enhanced anti-cancer activity, about 0 neutral, <0 antagonist
[19] = NCI-H292 cells, cholesterol-free media without statin, FDA drug library screen
[20] = NCI-H292 cells, complete media, FDA drug library screen
[21] = complete vs cholesterol-free media, […]

Cc1cccc(N(C)C(=S)Oc2ccc3ccccc3c2)c1 [Tolnaftate]
Cholesterol-free media + simvastatin (0.04 μM) [1, 3]: 1.419 | Complete Media [1, 4]: 1.24 | Difference [1, 5]: −0.18 | Difference [2, 6]: −0.53 | Cholesterol-free [2, 7]: 1.723 | Complete [2, 8]: 1.191

CS(=O)(=O)Nc1cc2occ(NC=O)c(=O)c2cc1Oc1ccccc1 [Iguratimod]
Cholesterol-free media + simvastatin (0.04 μM) [1, 9]: 1.717 | Complete Media [1, 10]: 1.252 | Difference [1, 5]: −0.47 | Cholesterol-free [2, 11]: 1.252 | Complete ([2]; NCI-H292 cells, complete media): 0.9044 | Difference [2, 12]: −0.35

C[C@H]1O[C@H](O[C@H]2[C@H](O)[C@@H](O)[C@@H](O[C@H]3[C@H](O)[C@@H](O)C(O)O[C@@H]3CO)O[C@@H]2CO)[C@H](O)[C@@H](O)[C@@H]1N[C@H]1C=C(CO)[C@@H](O)[C@H](O)[C@H]1O (stereo partly shown) [Acarbose]
Cholesterol-free media + simvastatin (0.04 μM) [1, 13]: 0.841 | Difference [1, 14]: 0.31 | Difference [2, 15]: −0.13 | Cholesterol-free [2, 16]: 1.056 | Complete [2, 17]: 0.9216

NC(=O)c1ncn([C@@H]2O[C@H](CO)[C@@H](O)[C@H]2O)c1O [Mizoribine]
Cholesterol-free media + simvastatin (0.04 μM) [1, 13]: 1.118 | Complete Media [1, 17]: 0.9745 | Difference [1, 5]: −0.14 | Difference [2, 15]: −0.10 | Cholesterol-free [2, 16]: 0.879 | Complete [2, 17]: 0.7795

CCN(CC)Cc1cc(Nc2ccnc3cc(Cl)ccc23)ccc1O [Amodiaquine (dihydrochloride)]
Cholesterol-free media + simvastatin (0.04 μM) [1, 9]: 1.766 | Complete Media [1, 10]: 1.059 | Difference [1, 5]: −0.71 | Cholesterol-free [2, 11]: 1.475 | Complete ([2]; NCI-H292 cells, complete media): 1.037 | Difference [2, 12]: −0.44

COc1ccc(-c2cc(=S)ss2)cc1 [Anethole (trithione)]
Cholesterol-free media + simvastatin (0.04 μM) [1, 9]: 1.972 | Complete Media [1, 10]: 1.115 | Difference [1, 5]: −0.86 | Difference [2, 15]: −0.18 | Cholesterol-free [2, 16]: 1.563 | Complete [2, 17]: 1.382

c1cc(CN2CCCNCCNCCCNCC2)ccc1CN1CCCNCCNCCCNCC1 [Plerixafor (octahydrochloride)]
Cholesterol-free media + simvastatin (0.04 μM) [1, 9]: 1.159 | Complete Media [1, 10]: 0.812 | Difference [1, 5]: −0.35 | Difference [2, 15]: −0.08 | Cholesterol-free [2, 16]: 1.221 | Complete [2, 17]: 1.137

O=c1[nH]cc(F)c(=O)[nH]1 [5-Fluorouracil]
Cholesterol-free media + simvastatin (0.04 μM) [1, 9]: 0.7934 | Complete Media [1, 10]: 0.5204 | Difference [1, 5]: −0.27 | Difference [2, 15]: −0.13 | Cholesterol-free [2, 16]: 0.4728 | Complete [2, 17]: 0.3401

CN1CCC(=C2c3ccccc3CCc3sccc32)CC1 [Pizotifen]
Cholesterol-free media + simvastatin (0.04 μM) [1, 13]: 0.849 | Complete Media [1, 17]: 1.216 | Difference [1, 14]: 0.37 | Cholesterol-free [2, 11]: 1.127 | Complete ([2]; NCI-H292 cells, complete media): 0.7811 | Difference [2, 12]: −0.35

Cc1cc(Nc2ncc(Cl)c(Nc3ccccc3S(=O)(=O)C(C)C)n2)c(OC(C)C)cc1C1CCNCC1 [Ceritinib dihydrochloride]
Cholesterol-free media + simvastatin (0.04 μM) [1, 13]: 0.1666 | Complete Media [1, 17]: 0.03677 | Difference [1, 5]: −0.13 | Difference [2, 18]: −0.02 | Cholesterol-free [2, 19]: 0.3644 | Complete [2, 20]: 0.3489

Cc1ccc(-c2ncc(Cl)cc2-c2ccc(S(C)(=O)=O)cc2)cn1 [Etoricoxib]
Cholesterol-free media + simvastatin (0.04 μM) ([1]; NCI-H292 cells, cholesterol-free media with simvastatin 0.04 μM, FDA drug library screen (TABLE 2)): 1.501 | Complete Media ([1]; NCI-H292 cells, complete media, FDA drug library screen (TABLE 2)): 1.49 | Difference ([1]; complete media minus cholesterol-free media + simvastatin (0.04 μM), >0 enhanced anti-cancer activity, about 0 neutral, <0 antagonist): −0.01 | Cholesterol-free [2, 19]: 1.045 | Complete [2, 20]: 1.321 | Difference ([2]; complete vs cholesterol-free media, >0 enhanced anti-cancer activity, about 0 neutral, <0 antagonist): 0.28

O=C(O)CCCc1ccccc1 [4-Phenylbutyric acid]
Cholesterol-free media + simvastatin (0.04 μM) [1, 3]: 1.251 | Complete Media [1, 4]: 1.056 | Difference [1, 5]: −0.19 | Difference [2, 15]: −0.13 | Cholesterol-free [2, 16]: 1.208 | Complete [2, 17]: 1.079

COc1cc2c3cc1Oc1c(OC)c(OC)cc4c1[C@@H](Cc1ccc(O)c(c1)Oc1ccc(cc1)C[C@@H]3N(C)CC2)N(C)CC4 [berbamine, reference compound]
Cholesterol-free media + simvastatin (0.04 μM) ([1]; NCI-H292 cells, FDA drug library screen, cholesterol-free media with simvastatin 0.04 μM, listed as Berbamine): 0.4924 | Complete Media ([1]; NCI-H292 cells, FDA drug library screen, complete media, listed as Berbamine): 1.667 | Difference ([1]; complete media minus cholesterol-free media + simvastatin, […], listed as Berbamine): 1.17 | Cholesterol-free ([2]; NCI-H292 cells, cholesterol-free media without statin, listed as Berbamine): 1.275 | Complete ([2]; NCI-H292 cells, complete media, listed as Berbamine): 0.9674 | Difference ([2]; complete vs cholesterol-free media, […], listed as Berbamine): −0.31

c1ccc(-c2ccc(C(c3ccccc3)n3ccnc3)cc2)cc1 (stereo not shown) [Bifonazole]
Cholesterol-free media + simvastatin (0.04 μM) [1, 13]: 0.4379 | Complete Media [1, 17]: 0.7844 | Difference [1, 14]: 0.35 | Cholesterol-free [2, 11]: 1.572 | Complete ([2]; NCI-H292 cells, complete media): 1.228 | Difference [2, 12]: −0.34

CCOC(=O)[N-]c1cn(N2CCOCC2)n[o+]1 [Molsidomine]
Cholesterol-free media + simvastatin (0.04 μM) [1, 13]: 1.15 | Complete Media [1, 17]: 1.6 | Difference [1, 14]: 0.45 | Difference [2, 6]: −0.60 | Cholesterol-free [2, 7]: 1.343 | Complete [2, 8]: 0.7419

Escitalopram (oxalate)
Cholesterol-free media + simvastatin (0.04 μM) ([1]; NCI-H292 cells, cholesterol-free media with simvastatin 0.04 μM, cell growth value in FDA drug screen): 0.9976 | Difference [1, 14]: 0.04 | Difference [2, 18]: −0.01 | Cholesterol-free [2, 19]: 1.284 | Complete [2, 20]: 1.269

N[C@@H](CO)C(=O)O [L-Serine]
Cholesterol-free media + simvastatin (0.04 μM) [1, 3]: 1.125 | Complete Media [1, 4]: 0.9461 | Difference ([1]; complete media vs cholesterol-free media + simvastatin (0.04 μM), […]): −0.18 | Cholesterol-free [2, 11]: 1.3 | Complete ([2]; NCI-H292 cells, complete media): 0.9649 | Difference [2, 21]: −0.33

CC(=O)OCC(=O)[C@@]1(O)CC[C@H]2[C@@H]3CCC4=CC(=O)CC[C@]4(C)[C@H]3[C@@H](O)C[C@@]21C [Hydrocortisone acetate]
Cholesterol-free media + simvastatin (0.04 μM) [1, 13]: 0.7827 | Complete Media [1, 17]: 0.63 | Difference [1, 5]: −0.15 | Difference [2, 18]: −0.20 | Cholesterol-free [2, 11]: 0.8261 | Complete ([2]; NCI-H292 cells, complete media): 0.6264

CNNCc1ccc(C(=O)NC(C)C)cc1 [Procarbazine (Hydrochloride)]
Cholesterol-free media + simvastatin (0.04 μM) [1, 13]: 0.7556 | Complete Media [1, 17]: 1.193 | Difference [1, 14]: 0.44 | Difference [2, 6]: −0.50 | Complete [2, 8]: 1.119

CC(C)(O)C(Cl)(Cl)Cl [Chlorobutanol]
Cholesterol-free media + simvastatin (0.04 μM) [1, 3]: 1.763 | Complete Media [1, 4]: 1.523 | Difference [1, 5]: −0.24 | Difference [2, 18]: 0.02 | Cholesterol-free [2, 19]: 0.5641 | Complete [2, 20]: 0.5799

CC(C)CN(C[C@@H](O)[C@H](Cc1ccccc1)NC(=O)O[C@H]1CO[C@H]2OCC[C@H]21)S(=O)(=O)c1ccc(N)cc1 [Darunavir (Ethanolate)]
Cholesterol-free media + simvastatin (0.04 μM) [1]: 1.545 | Complete Media [1]: 1.286 | Difference [1]: −0.26 | Cholesterol-free [2]: 0.8952 | Difference [2]: 0.25

CCOCC(O)COc1ccc(NC(=O)CC[S+](C)C)cc1.Cc1ccc(S(=O)(=O)[O-])cc1 (stereo not shown) [Suplatast (Tosilate)]
Cholesterol-free media + simvastatin (0.04 μM) [1, 13]: 2.447 | Difference ([1]; complete media minus cholesterol-free media + simvastatin (0.04 μM), […]): −0.95 | Cholesterol-free [2, 19]: 0.9586 | Complete [2, 20]: 1.127 | Difference [2, 21]: 0.17
